Paper PMC10804494 (BMC Complementary Medicine and Therapies, 2024)
≈ marks a conversion by molar mass, not a printed value. Where a name gives a salt, the structure may show the parent alone. Read-outs that look alike come from different tables or passages of the source.

Assays:
[1] = in vitro; conditions: dog
[2] = test system: highly pathogenic avian influenza A/chicken/Egypt/N12640A/2016 (H5N1); assay: microbe, parasite or virus in culture; assay type: cell-based, influenza A/H5N1 virus
[3] = test system: seasonal influenza A/Egypt/NRC098/2019(H1N1); assay: microbe, parasite or virus in culture; assay type: cell-based; conditions: H1N1, MDCK, 72 h
[4] = test system: influenza A/H5N1 virus; assay: microbe, parasite or virus in culture; assay type: cell-based; conditions: H5N1, MDCK, read-out: Viral inhibition percentage, Viral Replication
[5] = test system: influenza A/H5N1 virus; assay: microbe, parasite or virus in culture; assay type: cell-based; conditions: H5N1, MDCK, read-out: Viral inhibition percentage, Virucidal
[6] = test system: influenza A/H5N1 virus; assay: microbe, parasite or virus in culture; assay type: cell-based
[7] = test system: influenza A/H5N1; assay type: cell-based, influenza A/H5N1 virus
[8] = test system: influenza A/H1N1; assay: Plaque reduction assay, A/H1N1; assay type: cell-based, influenza A/H1N1 virus; conditions: A/H1N1, MDCK, low non-toxic concentrations, Fig. 4
[9] = test system: IAV (A/Puerto Rico/8/1934(H1N1)); conditions: A/Puerto Rico/8/1934(H1N1) in mice; cited from earlier work
[10] = test system: MDCK cells; conditions: dog
[11] = cited from earlier work
[12] = Influenza A virus, H5N1, MDCK, 72 h
[13] = Influenza A virus, H5N1, MDCK, read-out: Viral inhibition percentage, Viral Adsorption

With C=C[C@H]1C[N@@]2CC[C@H]1C[C@@H]2[C@@H](O)c1ccnc2ccc(OC)cc12 [Quinidine Sulphate, Quinidine sulphate] the CC50 [1] was over 10000 µg/mL.

Compound C[n+]1cccc(C(=O)[O-])c1 [Trigonelline HCl] has a CC50 [1] of over 10000 µg/mL.

Cn1c(=O)c2c(ncn2C)n(C)c1=O [Caffeine] showed an IC50 [2, 12] of 85.7 µg/mL (≈ 441 µM) and a CC50 [1] of over 10000 µg/mL.

For CN[C@@H](C)[C@H](O)c1ccccc1 [Ephedrine HCl], the IC50 [2] was 186 µg/mL, the IC50 [2, 12] was 186 µg/mL and the CC50 [1] was over 10000 µg/mL.

Compound CN1C2CC(OC(=O)C(CO)c3ccccc3)CC1C1OC12 (single isomer, unassigned; (-)) [(-)Scopolamine HCl] has an IC50 [2, 12] of 360 µg/mL.

In the case of CC(=O)N[C@H]1[C@H]([C@H](O)[C@H](O)CO)OC(C(=O)O)=C[C@@H]1N=C(N)N [Zanamivir], the IC50 [2, 12] is reported as 0.358 µg/mL (≈ 1.08 µM), the IC50 [3] is reported as 0.265 µg/mL (≈ 0.797 µM) and the CC50 [1] is reported as over 10000 µg/mL.

With COc1ccc(Cc2nccc3cc(OC)c(OC)cc23)cc1OC [Papaverine HCl] the “anti-influenza activity against A/H5N1 virus (in words)” value [2] was “poor anti-influenza activity” and the CC50 [1] was 274 µg/mL.

Compound CN1C2CCC1CC(OC(=O)C(CO)c1ccccc1)C2 (stereo not shown) [Atropine sulphate] has an IC50 [2, 12] of 2.26 µg/mL, an IC50 [3] of 0.204 µg/mL and an inhibition at 1 µg/mL [4] of 32.8%. For the same compound, the inhibition at 10 µg/mL [4] was 41.2%, the inhibition at 100 µg/mL [4] was 52.9% and the inhibition at 1 µg/mL [5] was 90.5%. The inhibition at 10 µg/mL [5] was 97.6%, the inhibition at 100 µg/mL [5] was 100% and the inhibition at 1 µg/mL [6, 13] was 36.2%. For the same compound, the inhibition at 10 µg/mL [6, 13] was 45.2%, the inhibition at 100 µg/mL [6, 13] was 52.4% and the “reduction of viral titers (in words)” value [7] was “high capacity to reduce viral titers”. The “reduction of viral titers (in words)” value [8] was “high capacity to reduce viral titers”.

For C=C[C@H]1C[N@@]2CC[C@H]1C[C@H]2[C@H](O)c1ccnc2ccc(OC)cc12 [Quinine sulphate], the “anti-influenza activity against A/H5N1 virus (in words)” value [2] is listed as “no anti-influenza activity”, the “antiviral effect in mice (in words)” value [9] is listed as “exert an antiviral effect” and the CC50 [1] is listed as over 10000 µg/mL.

Work on COc1cc2c(c(OC)c1OC)-c1ccc(OC)c(=O)cc1[C@@H](NC(C)=O)CC2 [Colchicine, (S)-N-(1,2,3,10-tetramethoxy-9-oxo-5,6,7,9-tetrahydrobenzo[a]heptalen-7-yl)acetamide] yielded an inhibition at 1 µg/mL [4] of 85.7%, an inhibition at 10 µg/mL [4] of 87% and an inhibition at 100 µg/mL [4] of 91.1%. The inhibition at 1 µg/mL [5] was 25%, the inhibition at 10 µg/mL [5] was 38% and the inhibition at 100 µg/mL [5] was 47.1%. For the same compound, the “Viral inhibition percentage, Viral Adsorption” value [6] was 73.05%, the inhibition at 1 µg/mL [6, 13] was 55% and the inhibition at 10 µg/mL [6, 13] was 64.1%. The inhibition at 100 µg/mL [6, 13] was 73%, the “reduction of viral titers (in words)” value [7] was “high capacity to reduce viral titers” and the “reduction of viral titers (in words)” value [8] was “high capacity to reduce viral titers”. For the same compound, the CC50 [10] was 3370 µg/mL (≈ 8440 µM), the CC50 [1] was 2380 µg/mL (≈ 5960 µM) and the toxic range [11] was 0.6 mg.

Work on CC[C@@H]1C(=O)OC[C@@H]1Cc1cncn1C [Pilocarpine HCl] yielded an IC50 [2, 12] of 0.21 µg/mL, an IC50 [3] of 0.637 µg/mL and an inhibition at 10 µg/mL [4] of 35.3%. The inhibition at 100 µg/mL [4] was 46.9%, the inhibition at 1000 µg/mL [4] was 53.1% and the inhibition at 10 µg/mL [5] was 94.9%. For the same compound, the inhibition at 100 µg/mL [5] was 99.1%, the inhibition at 1000 µg/mL [5] was 100% and the inhibition at 10 µg/mL [6, 13] was 37.8%. For the same compound, the inhibition at 100 µg/mL [6, 13] was 44.6%, the inhibition at 1000 µg/mL [6, 13] was 56.9% and the “reduction of viral titers (in words)” value [7] was “high capacity to reduce viral titers”. For the same compound, the “reduction of viral titers (in words)” value [8] was “high capacity to reduce viral titers” and the CC50 [1] was 3320 µg/mL.
